Source: US11358933B2, “Compounds and methods for inhibiting CYP26 enzymes” (Queen's University at Kingston, priority 2017, dated 2022)

Columns and labels:
[1] = tested on: MC3T3 cells; assay: RA metabolism by MC3T3 pre-osteoblasts; format: cell-based, mouse
Method: (§1) These experiments are to assess the ability of primary cells, or cell lines to metabolize RA, and to determine the effect of inhibition of CYP26A1 or CYP26B1 on this ability. For these experiments, cells are plated into 48-well plates and treated with a radiolabeled (^3H) RA. The extent of conversion of this labeled RA to water soluble metabolites is determined as above for in the cell-based inhibitor assay. Primary human bone marrow stromal cells (available from Lonza) were cultured in MyeloCult (available from Stem Cell Technologies, Vancouver, Canada). Mouse OP9 bone marrow stromal cells and MC3T3 pre-osteoblasts were cultured as above. Cells are plated in the appropriate culture medium and allowed to form a monolayer. Cells are then pre-treated with either DMSO (vehicle control) or RA (1 μM) for 24 hours to induce CYP26 expression. Vehicle, and RA induced cells are then exposed to ^3H-RA in the presence or absence of test CYP26 inhibitor to examine the effects on RA metabolism. Cells are incubated for 3 hours with labeled RA, and metabolites extracted and analyzed as above.

[2] = tested on: kasumi-1 human AML cells; assay: CD34+CD38- LSC analysis by FACS, Kasumi-1 cells with or without OP9 stroma; format: cell-based; details: 1 μM RA plus compound, OP9 stroma present, 72 hours
Method: (§2) Many human non-APL AML cell lines are sensitive to RA-induced differentiation. However, co-culture of leukemic cells with bone marrow stromal cells can block this effect of RA. This assay tests the ability of CYP26 inhibitor compounds to overcome the protective effect that stromal cells have on leukemic cell differentiation. For these experiments, OP9 mouse bone marrow stromal cells are grown MEM-α containing 20% FBS, in 24 well plates until a cell monolayer is formed. OP9 cells are then irradiated (15Gy) using a GammaCell 20 cesium-137 source (located at Queen's University) in order to induce growth arrest. Leukemic cells are then added to the irradiated monolayers, or control wells without OP9 cells. AML cell lines (150,000 cells) are then plated onto OP9 monolayers in their appropriated growth medium; THP-1 RPMI-1640 medium containing 10% FBS; MDSL, RPMI-1640 medium containing 10% FBS and 10 ng/ml recombinant human IL-3; Kasumi-1, RPMI-1640 containing 20% FBS; MV4-11, IMDM containing 10% FBS. […] Stained cells are then sorted by FACS in a BD FACS Aria 3 flow cytometer (Queen's University) using FACS Diva software, to assess percentage of cells that are CD11b^+, the relative expression levels of CD11b (by median fluorescence intensity—MFI), or percentage of CD34^+CD38^− leukemic stem cells (LSCs). […]

[3] = tested on: RA target gene (CYP26A1) expression in MCF-7 cells; assay: Enhancement of RA activity assay, QPCR of CYP26A1 expression in MCF-7 cells; format: cell-based; details: 0.1 μM RA plus 1 μM compound, 24, 48, 72 hours
Method: An RA activity assay was used to measure the ability of compounds that inhibit CYP26 to enhance activity of RA, for example, by limiting its catabolism. This assay measured expression of endogenous RA target genes in MCF-7 cells that have been treated with RA and a compound of interest. A compound that inhibits CYP26 activity will have the effect of prolonging the induction of RA target genes in response to RA.
Exponentially growing MCF-7 cells were treated with trypsin, collected and plated into 6-well culture dishes at 300,000 cells per well. Once cells had reached confluency, they were treated with CYP26 inhibitor test compounds or with ketoconazole (a non-selective CYP inhibitor) at a final concentration of 1 μM, or an equal volume of DMSO as a control. […] RNA was harvested using Trizol reagent after 24, 48, and 72 hours of treatment. cDNA was synthesized from 2 μg of total RNA using Superscript III cDNA synthesis kit with random priming (available from Life Technologies, Burlington, ON, Canada). Analysis of expression of the RA inducible CYP26A1 gene was quantified by qPCR normalized against expression of PMM2 with Sybr Select Master Mix (Life Technologies) and gene specific primers in a two-step thermal cycling reaction. Data is provided for a CYP26B1 selective inhibitor, which enhances the induction of CYP26A1. […]

[4] = molecular target: CYP26A1 (Homo sapiens (Human), UniProt O43174); assay: Cell-based inhibitor assay ([3H]-RA metabolism), CYP26A1 stably transfected HeLa cells
Chain of CYP26A1 (O43174 whole entry): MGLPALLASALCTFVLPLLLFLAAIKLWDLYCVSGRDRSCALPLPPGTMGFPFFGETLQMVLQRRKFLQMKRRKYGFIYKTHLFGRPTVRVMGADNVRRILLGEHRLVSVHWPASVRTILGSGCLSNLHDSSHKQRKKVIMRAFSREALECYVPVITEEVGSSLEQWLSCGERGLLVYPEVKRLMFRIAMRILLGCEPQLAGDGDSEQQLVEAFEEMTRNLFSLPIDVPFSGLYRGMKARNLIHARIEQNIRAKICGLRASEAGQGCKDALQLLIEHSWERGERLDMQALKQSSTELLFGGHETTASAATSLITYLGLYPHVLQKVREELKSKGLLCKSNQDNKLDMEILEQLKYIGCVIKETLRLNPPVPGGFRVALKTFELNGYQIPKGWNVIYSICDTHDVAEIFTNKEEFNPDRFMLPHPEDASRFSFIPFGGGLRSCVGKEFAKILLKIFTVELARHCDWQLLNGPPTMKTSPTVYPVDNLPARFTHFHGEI
Method: CYP26A1 or CYP26B1 stably transfected HeLa cells were maintained in Minimum Essential Medium (MEM) containing 10% fetal bovine serum (FBS) and 100 μg/mL hygromycin. Exponentially growing cells were harvested by incubation in trypsin. Cells were then collected and re-plated in 48-well culture plates at 5×10^5 cells in 0.2 mL of culture medium containing 0.05 μCi [^3H]-RA in the presence or absence of increasing concentrations of a test compound. The test compounds were diluted in dimethyl sulfoxide (DMSO) and then added in duplicate to wells at 0.01, 0.1, 1, 10 and 100 μM final concentration. As a positive control for inhibition of RA metabolism, cells were also incubated with ketoconazole at the same concentrations as above. Cells were incubated for 3 hours at 37° C. Retinoids were then extracted using the procedure of Bligh, et al., (1959), Canadian Journal of Biochemistry 37, 911-917, which was modified by using dichloromethane instead of chloroform. Each sample's water soluble radioactivity level was quantified using a β-scintillation counter (using Ecolume scintillation fluid, available from MP Biomedicals of Solon, Ohio, USA). IC50 values represented the concentration of inhibitor required to inhibit all trans-RA metabolism by 50%, and were derived from log transformed data.

[5] = tested on: human AML THP-1 cells; assay: Leukemia cell differentiation by FACS (PE-CD11b), THP-1 cells with or without OP9 stroma; format: cell-based
Method: Many human non-APL AML cell lines are sensitive to RA-induced differentiation. However, co-culture of leukemic cells with bone marrow stromal cells can block this effect of RA. This assay tests the ability of CYP26 inhibitor compounds to overcome the protective effect that stromal cells have on leukemic cell differentiation. For these experiments, OP9 mouse bone marrow stromal cells are grown MEM-α containing 20% FBS, in 24 well plates until a cell monolayer is formed. OP9 cells are then irradiated (15Gy) using a GammaCell 20 cesium-137 source (located at Queen's University) in order to induce growth arrest. Leukemic cells are then added to the irradiated monolayers, or control wells without OP9 cells. AML cell lines (150,000 cells) are then plated onto OP9 monolayers in their appropriated growth medium; THP-1 RPMI-1640 medium containing 10% FBS; MDSL, RPMI-1640 medium containing 10% FBS and 10 ng/ml recombinant human IL-3; Kasumi-1, RPMI-1640 containing 20% FBS; MV4-11, IMDM containing 10% FBS. Cells are then treated for 72 hours with DMSO (vehicle control), RA (0.1 μM for THP-1 and MV4-11 cells, and 1 μM for Kasumi-1 cells), test CYP26 inhibitor compound, or the combination of RA and inhibitor compound. After the treatment period, leukemic cells are collected and stained with fluorophore labeled antibodies against cell surface antigens indicative of myeloid differentiation (PE-CD11b), or of stem cell populations (FITC-CD34, PE-CD38); all antibodies are available from BD Biosciences. Stained cells are then sorted by FACS in a BD FACS Aria 3 flow cytometer (Queen's University) using FACS Diva software, to assess percentage of cells that are CD11b^+, the relative expression levels of CD11b (by median fluorescence intensity—MFI), or percentage of CD34^+CD38^− leukemic stem cells (LSCs). Results are typically presented as the average of triplicates.

[6] = tested on: mouse OP9 bone marrow stromal cells; assay: RA metabolism by OP9 bone marrow stromal cells; format: cell-based
Method: as §1

[7] = tested on: MV4-11 cells; assay: Leukemia cell differentiation by FACS (CD11b+), MV4-11 cells with or without stroma; format: cell-based, human; details: RA plus compound, in the presence of stroma
Method: as §2

- CYP26A1 inhibition compared with ketoconazole ([4]; FIG. 1): comparable to ketoconazole
- IC50 ([4]; HeLa cell-based assay, 3 hours): 7 µM
- CYP26A1 Rel. to keto ([4]; IC50 relative to ketoconazole): 4.4
SMILES: CC(C)(C)c1cccc(-c2cc3cc(/C=C/C(=O)O)ccc3[nH]2)c1 [Compound 026]
- RA metabolism, basal and RA-induced [1]: block basal as well as RA-induced RA metabolism in these cells in a dose-dependent manner
- Number of CD34+CD38- cells (LSCs) [2]: restored the ability of RA to reduce the number of
- RA target gene transcription on co-treatment with RA [3]: enhanced RA target gene transcription, and prolonged this response to at least 72 hours
- PE-CD11b MFI ([5]; 0.1 μM RA plus 1 μM compound, OP9 stroma present, 72 hours): greatly enhanced CD11b MFI
- Sensitization to low doses of RA ([5]; in the presence of stroma): sensitized THP-1 cells to low doses of RA
- RA metabolism, basal and RA-induced [6]: efficiently blocked basal and RA-induced RA metabolism
- RA-induced differentiation (CD11b+ cells) [7]: rescued RA-induced differentiation in the presence of stroma
